Bounds are passed on as bounds.

The subject of the first series is RSV. Nature of the series: RSV inhibitory activity (WT activity). Type of series: cell-based, respiratory syncytial virus. Conditions: Table 1, wild-type RSV.
Broadly, the EC50 is the concentration at which the effect is half-maximal. With `COCCCc1c(Cn2c(=O)n(C3CC3)c3ccncc32)nc2cc(Cl)ccn12` [Compound P2], the EC50 turned out to be 3.8 nM.

Regarding `O=c1n(Cc2nc3ccccn3c2CCCCO)c2cnccc2n1C1CC1` [Compound P5], the EC50 was 21.8 nM. In the case of `COCC#Cc1c(Cn2c(=O)n(C3CC3)c3ccncc32)nc2cc(Cl)ccn12` [Compound P6], the EC50 was found to be 170 nM. As to `O=c1n(Cc2nc3cc(CCCCO)ccn3c2CCCCO)c2cnccc2n1C1CC1` [Compound P10], the EC50 is > 9840 nM. Turning to `CC(C)CC#Cc1c(Cn2c(=O)n(C(C)C)c3ccccc32)nc2ccccn12` [Compound P11], the EC50 came out at 11300 nM. That is a double-digit micromolar value. Same read-out and setting: to `CC(C)n1c(=O)n(Cc2cn3ccccc3n2)c2ccccc21` [Compound P12] belongs 16100 nM. With `O=c1n(Cc2cn3ccccc3n2)c2cnccc2n1C1CC1` [Compound P13], a half-maximal effect (EC50) was put at 51500 nM. This EC50 lies about 3.2-fold higher than the previous one. As to `O=c1n(Cc2cn3ccncc3n2)c2cnccc2n1C1CC1` [Compound P14], the EC50 was > 98400 nM.

The same series, now with this note: Table 2, wild-type RSV.
For the compound `CC(C)(C)C=Cc1c(Cn2c(=O)n(C3CC3)c3ccncc32)nc2cnccn12` [Compound P15], a half-maximal response (EC50) required 318 nM.

`CC(C)(C)CCc1c(Cn2c(=O)n(C3CC3)c3ccncc32)nc2cnccn12` [Compound P16] returned an EC50 of 172 nM. Regarding `COC(=O)C=Cc1c(Cn2c(=O)n(C3CC3)c3ccncc32)nc2cc(Cl)ccn12` [Compound P20], the EC50 is 2.97 nM. Turning to `N#CC=Cc1c(Cn2c(=O)n(C3CC3)c3ccncc32)nc2cc(Cl)ccn12` [Compound P21], the midpoint of the response, the EC50, lay at 13.6 nM. This EC50 lies about 4.6-fold higher than the previous one. Consider `CN(C)C(=O)CCc1c(Cn2c(=O)n(C3CC3)c3ccncc32)nc2cc(Cl)ccn12` [Compound P23], for which a half-maximal response (EC50) required 2.61 nM. Compound `CN(C)C(=O)CCc1c(Cn2c(=O)n(C3CC3)c3ccncc32)nc2ccccn12` [Compound P25] had an EC50 of 15.3 nM.

Staying with this series, now noted: human respiratory syncytial virus; Table 1, wild-type RSV.
Compound `O=c1n(Cc2nc3cc(Cl)ccn3c2CCCCO)c2cnccc2n1C1CC1` [Compound P1, 3-((7-chloro-3-(4-hydroxybutyl)imidazo[1,2-a]pyridin-2-yl)methyl)-1-cyclopropyl-1H-imidazo[4,5-c]pyridin-2(3H)-one] came in with an EC50 of 0.4 nM. That is a sub-nanomolar value. Compound `O=c1n(Cc2nc3ccccn3c2CCC2CC2)c2cnccc2n1C1CC1` [Compound P3, 1-cyclopropyl-3-((3-(2-cyclopropylethyl)imidazo-[1,2-a]pyridin-2-yl)methyl)-1H-imidazo[4,5-c]pyridin-2(3H)-one] showed an EC50 of 5.25 nM.

The same series, now with this note: human respiratory syncytial virus; Table 2, wild-type RSV.
For the compound `O=c1n(Cc2nc3cnccn3c2CCCCO)c2cnccc2n1C1CC1` [Compound P17, 1-cyclopropyl-3-((3-(4-hydroxybutyl)imidazo[1,2-a]pyrazin-2-yl)methyl)-1H-imidazo[4,5-c]pyridin-2(3H)-one], the EC50 was 276 nM. Turning to `O=c1n(Cc2nc3cnccn3c2CCCCF)c2cnccc2n1C1CC1` [Compound P18, 1-cyclopropyl-3-((3-(4-fluorobutyl)imidazo[1,2-a]pyrazin-2-yl)methyl)-1H-imidazo[4,5-c]pyridin-2(3H)-one], the EC50 came out at 544 nM. Regarding `O=C(CCc1c(Cn2c(=O)n(C3CC3)c3ccncc32)nc2cc(Cl)ccn12)N1CCOCC1` [Compound P26, 3-((7-chloro-3-(3-morpholino-3-oxopropyl)imidazo[1,2-a]pyridin-2-yl)methyl)-1-cyclopropyl-1H-imidazo[4,5-c]pyridin-2(3H)-one], it took 2.19 nM to reach a half-maximal effect (EC50).

`O=C(CCc1c(Cn2c(=O)n(C3CC3)c3ccncc32)nc2ccccn12)N1CCOCC1` [Compound P27, 1-cyclopropyl-3-((3-(3-morpholino-3-oxopropyl)imidazo[1,2-a]pyridin-2-yl)methyl)-1H-imidazo[4,5-c]pyridin-2(3H)-one]: the EC50 was 55.8 nM.

System in another series: not listed separately
Briefly: Toxicity (CC50).
Details: not given
As a reminder, the CC50 is the concentration at which the toxic effect on the cells reaches its halfway point. High values mean lower toxicity to the cells, low ones greater toxicity to the cells. As to `O=c1n(Cc2nc3cc(Cl)ccn3c2CCCCO)c2cnccc2n1C1CC1` [Compound P1, 3-((7-chloro-3-(4-hydroxybutyl)imidazo[1,2-a]pyridin-2-yl)methyl)-1-cyclopropyl-1H-imidazo[4,5-c]pyridin-2(3H)-one], the CC50 is > 9840 nM. On the same count and under the same terms, to `O=c1n(Cc2nc3ccccn3c2CCC2CC2)c2cnccc2n1C1CC1` [Compound P3, 1-cyclopropyl-3-((3-(2-cyclopropylethyl)imidazo-[1,2-a]pyridin-2-yl)methyl)-1H-imidazo[4,5-c]pyridin-2(3H)-one] belongs > 9840 nM.

These data come from patent publication US8846672B2, “Imidazopyridines as respiratory syncytial virus antiviral agents” (Janssen R&D Ireland, priority 2010, dated 2014).
